Reference: US8030493B2, “Monovalent and divalent salts of N-(5-hydroxynicotinoil) -L-glutamic acid exhibiting psychotropic (antidepressant and anxiolytic), neuroprotective, geroprotective and cerebroprotective action” (Obschestvo S Ogranichennoy Otvetstvennostyu “Natsionalnaya …, priority 2006, dated 2011)
Values joined by “and” are separate entries in the source; they are usually repeats but may differ in a detail not shown here. Identical values can stand only once. Marks after values point to notes of the source that are not given here.

Columns and labels:
Format in all cases: in vivo
[1] = test system: rats with hemorrhagic stroke; test: Hemorrhagic stroke: reproduction of passive avoidance response; settings: 20 mg/kg; for Increase of the share of rats with HS that retained the memory trace: PAR reproduction on Day 14, versus 8% of untreated rats with stroke
Source text: White nondescript male rats with body weight 200-250 g, which lived in vivarium and had feed (standard palletized feed) and water ad libitum, with natural alternation of day and night, were used in the experiments. Hemorrhagic stroke (local cerebral hemorrhage) was simulated according to method by A. N. Makarenko et al. (Method of local hemorrhage simulation I various structures of the brain in experimental animals. Journal Visshei Nervnoy Deyatelnosti—Journal of Higher Nervous Activities, 2002, v. 52, No 6, p. 765-768). In nembutal-anesthetized rats (40 mg/kg, i.m.) destruction of the brain tissue in capsule interna area was made with the use of special device (mandarin-knife) followed by application of blood (0.02-0.03 ml) taken from under the rat's tongue to the damaged area (within 2-3 minutes). False-operated animals underwent scalping and craniotomy. The animals were divided into 5 groups: intact rats, false-operated rats, animals with hemorrhagic stroke received nooglutyl at 20 mg/kg, and animals with hemorrhagic stroke received Compound I at 20 mg/kg. Effects were recorded within 24 hours and 14 days after the surgery. Learning ability and memory of the rats was examined in the model of passive avoidance response (PAR, Passive Avoidance supplied by Lafayette Instrument Co., USA). To determine neurological deficit in the animals Stroke-index McGrow scale modified by I. V. Gannushkina (Functional architectonics of the brain, Moscow, Medicina, 1977, 224 p.) was used. The severity of the condition was determined by the sum of the points. The number of rats with mild symptoms up to 2.5 points of Stroke-index scale (apathy, weakness of the extremities, unilateral semiptosis, tremor, circus movements) and severe manifestations of neurological disorders (3 to 10 points)—paresis of the extremities, palsy of low extremities, lateral position. The animals received single dose of nooglutyl and Compound I at the same dose 20 mg/kg intraperitoneally within 3-3.5 hours after the surgery. Controlled animals were treated with saline. At onset of the experiment each group comprised 15-20 animals. Mortality of the rats was recorded throughout the observation period (14 days). Statistical analysis was made using parametrical and non-parametrical methods and Biostat software. Nimodipin administered at 01.mg/kg according to above scheme was considered as a standard.

rats with amnesia = test: Antiamnestic activity: passive avoidance response (PAR) with amnesia by maximum electric shock; settings: for Time of presence of animals while PAR reproduction (seconds) in the dark chamber / Time of presence of animals while PAR reproduction (seconds) on the illuminated platform: rats with electric shock amnesia, 24 hours after learning; for Dose level with statistically significant antiamnestic effect of the same intensity: PAR, electric shock amnesia, intraperitoneally
Procedure: White nondescript male rats with body weight 250-280 g were used in the experiments. Each dose level was studied in 10 animals. Control animals received equivalent volume of distilled water. Nooglutyl was used as reference agent. Study compounds were administered intraperitoneally 40 minutes before the experiment. Experiment was carried out on the standard automated unit for passive avoidance response (Passive Avoidance) supplied by Lafayette Instrument Co., (USA) (Ader et al. Retention of a passive avoidance response as a function of the intensity and duration of electric shock. Psycho Sci. 1972, v. 26, p. 125-128; Voronina T. A. et al. “Textbook for Experimental (Preclinical Study) of novel pharmacological compounds”. Moscow, Medicina. 2005, p. 253-263 and 308-320). The unit was designed as small platform situated 1 m above the floor, which was illuminated with special lamp, and dark chamber with electrode floor connected with the platform. The rat was placed on illuminated platform in front of the entry to the dark chamber with its tail directed to the entry; the animal preferred dark chamber and quickly ran into it. In the dark chamber the animal received single pain stimulus with electric current (0.45 mA) and memorized that it was dangerous to enter dark chamber. Duration of the stimulus was determined from the running out of the animal from the dark chamber. To achieve amnesia maximum electric shock was used (50 Hz, 0.2 sec), which was made through corneal electrodes immediately after learning. Electric shock caused obliteration of the memory trace. Test for reproduction of passive avoidance response (PAR) (for retention of memory trace) was performed 24 hours after learning session and electric shock. The animal was placed on illuminated platform once again, and time of the presence on illuminated platform and dangerous dark chamber (no current was conducted to the floor during reproduction of PAR).
Control trained animals with reproduction of PAR without electric shock preferred to stay on illuminated platform. Obliteration of training with electric shock causes amnesia in the animals; as a result, the animals with short latent period enter dark chamber and stay there considerably longer than animals without amnesia (Table 2).

aged rats (24 months) = test: Motor coordination of aged rats on rotating rod; settings: for Number of the animals (%), which obtained the skill, By attempt 5 / Number of the animals (%), which obtained the skill, By attempt 15 / Number of the animals (%), which obtained the skill, By attempt 10: aged rats 24 months, 20 mg/kg 60 days, rotating rod 2 minutes; for Number of the animals (%), which obtained the skill, By attempt 10: 20 mg/kg; for Number of attempts required for learning to 50% of the animals: aged rats treated for 2 months, untreated aged animals 17th attempt
Procedure: White nondescript male rats (Wistar line): to adult animals at age 3 months with body weight 250-300 g and aged 24 month old animals with body weight 350-450 g were used in the study. Nooglutyl at dose level 20 mg/kg and Compound I were administered to aged rats intraperitoneally for 2 months followed by assessment of the effect on learning capacity impaired by age and neurological deficit. Analysis of variance with Student's test, variant portion method and U-test were employed for data processing.
To assess neurological deficit in aged animals (disturbed coordination and capacity for learning motor responses) the rats were placed on the rotating rod. The number of attempts required to obtain the skill of holding on the rotating rod for 2 minutes was registered. […] Under similar conditions only 25% of aged rats obtained this skill starting from the 11th-14th attempt. […] 60% of aged rats treated with nooglutyl and 66% of aged rats treated with Compound I for 2 months learned the skill by the 10th attempt.

[2] = PAR reproduction within 24 hours
[3] = PAR reproduction within 14 days

O=C([O-])CC[C@H](NC(=O)c1cncc(O)c1)C(=O)[O-].[Ca+2] [Compound I, Calcium N-(5-hydroxynicotinoyl)-L-glutamate]
Increase of the share of rats with HS that retained the memory trace [1]: 6.5 fold
Latent period of entry to dark chamber (c) [1, 2]: 128.1 ± 17.6 c
Number of animals, which did not enter dark chamber (%) [1, 2]: 63%
Latent period of entry to dark chamber (c) [1, 3]: 98.9 ± 21.3 c
Number of animals, which did not enter dark chamber (%) [1, 3]: 52$$ %
Time of presence of animals while PAR reproduction (seconds) in the dark chamber (rats with amnesia; 25 mg/kg intraperitoneally): 64.2 ± 6.4 s
Time of presence of animals while PAR reproduction (seconds) on the illuminated platform (rats with amnesia; 25 mg/kg intraperitoneally): 55.8 ± 9.3 s
Time of presence of animals while PAR reproduction (seconds) in the dark chamber (rats with amnesia; 50 mg/kg intraperitoneally): 40.6 ± 8.3 s
Time of presence of animals while PAR reproduction (seconds) on the illuminated platform (rats with amnesia; 50 mg/kg intraperitoneally): 79.4 ± 12.8 s
Dose level with statistically significant antiamnestic effect of the same intensity (rats with amnesia): 25 mg/kg
Number of the animals (%), which obtained the skill, By attempt 5 (aged rats (24 months)): 20%
Number of the animals (%), which obtained the skill, By attempt 15 (aged rats (24 months)): 66# %
Number of the animals (%), which obtained the skill, By attempt 10 (aged rats (24 months)): 66% and 60# %
Number of attempts required for learning to 50% of the animals (aged rats (24 months)): 6 attempt

O=C(O)CC[C@H](NC(=O)c1cncc(O)c1)C(=O)O [Nooglutyl, N-(5-hydroxynicotinoyl)-L-glutamic acid, reference compound]
Increase of the share of rats with HS that retained the memory trace [1]: 5 fold
Latent period of entry to dark chamber (c) [1, 2]: 130.4 ± 20.1 c
Number of animals, which did not enter dark chamber (%) [1, 2]: 64%
Latent period of entry to dark chamber (c) [1, 3]: 92.2 ± 18.2 c
Number of animals, which did not enter dark chamber (%) [1, 3]: 40$ %
Time of presence of animals while PAR reproduction (seconds) in the dark chamber (rats with amnesia; 25 mg/kg intraperitoneally): 73.3 ± 13.4 s
Time of presence of animals while PAR reproduction (seconds) on the illuminated platform (rats with amnesia; 25 mg/kg intraperitoneally): 46.7 ± 13.4 s
Time of presence of animals while PAR reproduction (seconds) in the dark chamber (rats with amnesia; 50 mg/kg intraperitoneally): 65.7 ± 7.1 s
Time of presence of animals while PAR reproduction (seconds) on the illuminated platform (rats with amnesia; 50 mg/kg intraperitoneally): 54.3 ± 10.2 s
Dose level with statistically significant antiamnestic effect of the same intensity (rats with amnesia): 50 mg/kg
Number of the animals (%), which obtained the skill, By attempt 5 (aged rats (24 months)): 20%
Number of the animals (%), which obtained the skill, By attempt 15 (aged rats (24 months)): 60# %
Number of the animals (%), which obtained the skill, By attempt 10 (aged rats (24 months)): 60# %
Number of the animals (%), which obtained the skill, By attempt 10 (aged rats (24 months); listed as nooglutyl): 60%
Number of attempts required for learning to 50% of the animals (aged rats (24 months)): 7 attempt
